According to ChEMBL document CHEMBL4477179, “Wewakazole B, a Cytotoxic Cyanobactin from the Cyanobacterium Moorea producens Collected in the Red Sea” (J Nat Prod, 2016):
The source made the active and inactive calls. No cut-off for these calls is given here. *1 amine or outer side, *2 acyl side, *3 side chain or, on linkers, in order; H or OH if unused. Where a SMILES comes first, the peptide text is derived from it. [ ]: non-standard residue; d: D form. X1 = Cc1oc([C@H](Cc2ccccc2)N[*:1])nc1C(=O)[*:2]; X3 = CC[C@H](C)[C@H](N[*:1])c1nc(C(=O)[*:2])co1; X2 = Cc1oc([C@H](C)N[*:1])nc1C(=O)[*:2]

Assays:
[1] = Metal chelating activity assessed as Fe3+ complex formation at 89 uM measured after 45 mins by CAS assay; type: functional
MCF7 = test: Cytotoxicity against human MCF7 cells measured after 72 hrs by MTT assay; type: functional, cell-based; details: MCF7, 72 h
NCI-H460 = test: Cytotoxicity against human NCI-H460 cells measured after 72 hrs by MTT assay; type: functional, cell-based; details: NCI-H460, 72 h
[2] = Metal chelating activity assessed as Fe3+ complex formation measured after 45 mins by CAS assay; type: functional

IC50 [2] [nM] | Structure (SMILES) | Activity [1] | IC50 (MCF7) [nM] | IC50 (NCI-H460) [nM]
– | CC[C@H](C)[C@@H]1NC(=O)[C@@H]2CCCN2C(=O)[C@H](Cc2ccccc2)NC(=O)c2nc(oc2C)[C@H](C)NC(=O)c2nc(oc2C)[C@H](Cc2ccccc2)NC(=O)CNC(=O)[C@@H]2CCCN2C(=O)[C@@H]2CCCN2C(=O)[C@H](C)NC(=O)c2coc1n2 (cyclo(APPG[X1][X2]FP[X3])) | inactive | 580 | 1000
5100 | CC(=O)N(O)CCCCCNC(=O)CCC(=O)N(O)CCCCCNC(=O)CCC(=O)N(O)CCCCCN [DEFEROXAMINE] | – | – | –
